Columns and labels:
[1] = target: T1, Nuclear receptor ROR-gamma (Homo sapiens, UniProt P51449); experiment: Agonist activity at 6xHis tagged human RORgammat LBD (262 to 507 residues) expressed in Escherichia coli BL21 (DE3) assessed as biotinylated SRC1-2 peptide coactivator recruitment by AlphaScreen assay
T1 sequence (P51449 whole entry): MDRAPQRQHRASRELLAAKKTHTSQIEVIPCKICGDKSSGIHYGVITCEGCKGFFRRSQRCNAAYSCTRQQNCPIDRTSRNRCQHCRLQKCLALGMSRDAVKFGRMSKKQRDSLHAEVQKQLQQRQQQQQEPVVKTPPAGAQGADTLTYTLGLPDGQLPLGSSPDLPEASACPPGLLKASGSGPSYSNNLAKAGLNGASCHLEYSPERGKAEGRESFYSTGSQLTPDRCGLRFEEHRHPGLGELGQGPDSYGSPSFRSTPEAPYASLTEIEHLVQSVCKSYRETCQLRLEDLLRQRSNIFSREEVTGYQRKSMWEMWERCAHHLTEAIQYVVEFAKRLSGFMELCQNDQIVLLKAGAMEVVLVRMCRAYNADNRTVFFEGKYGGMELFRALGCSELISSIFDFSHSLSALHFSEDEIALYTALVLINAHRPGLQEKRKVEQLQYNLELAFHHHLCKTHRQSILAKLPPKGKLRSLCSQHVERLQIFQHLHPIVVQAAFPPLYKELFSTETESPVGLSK

[2] = target: T2, Nuclear receptor ROR-gamma (Homo sapiens) (UniProt P51449); experiment: Agonist activity at His tagged human RORgammat LBD (unknown origin) expressed in baculovirus infected sf9 cells assessed as biotinylated-LXXLL peptide coactivator recruitment at <0.5 uM incubated for overnight by TR-FRET Assay relative to control
T2 sequence (whole entry): T1 sequence (P51449 whole entry)

[3] = target: T2, Nuclear receptor ROR-gamma (Homo sapiens); experiment: Agonist activity at Gal4-fused DBD RORgammat LBD (unknown origin) expressed in HEK293 cells assessed as coactivator recruitment at <0.5 uM incubated for overnight in presence of ursolic acid by luciferase reporter gene Assay relative to control; format: cell-based
[4] = target: T1, Nuclear receptor ROR-gamma; experiment: Agonist activity at His tagged RORgammat LBD (unknown origin) expressed in baculovirus infected sf9 cells assessed as biotinylated-LXXLL peptide coactivator recruitment incubated for overnight by TR-FRET Assay
[5] = target: T1, Nuclear receptor ROR-gamma; experiment: Agonist activity at Gal4-fused DBD RORgammat LBD (unknown origin) expressed in HEK293 cells assessed as coactivator recruitment incubated for overnight in presence of ursolic acid by luciferase reporter gene Assay; format: cell-based
[6] = target: T1, Nuclear receptor ROR-gamma; experiment: Agonist activity at Gal4-fused RORgammat DNA binding domain (unknown origin) expressed in 293T cells assessed as SRC1 coactivator recruitment in presence of ursolic acid by TR-FRET assay; format: cell-based

| Activity [2] | Activity [3] | SMILES | EC50 [1] | other results |
| --- | --- | --- | --- | --- |
| – | – | CC(C)CCC[C@@](C)(O)[C@H]1CC[C@H]2[C@@H]3CC=C4C[C@@H](O)CC[C@]4(C)[C@H]3CC[C@@]21C | 20 to 40 nM | – |
| > 200% | > 200% | O=C(O)C1Cc2ccc(OCc3c(F)cccc3Cl)cc2N(S(=O)(=O)c2cccc(C(F)(F)F)c2)C1 (stereo not given) | – | – |
| – | – | C[C@H]1CN(S(=O)(=O)c2cccc(C(F)(F)F)c2)c2nc(COc3c(F)cccc3Cl)ccc2O1 | – | EC50 [4]: < 500 nM; EC50 [5]: < 500 nM |
| > 200% | > 200% | C/C(=C\c1ccc2c(c1)N(S(=O)(=O)c1cccc(C(F)(F)F)c1)C[C@H](CCc1nn[nH]n1)O2)c1c(F)cccc1Cl | – | – |
| – | – | CC(C)=CCC[C@@H](C)[C@H]1CC[C@H]2C3=C(CC[C@]12C)[C@@]1(C)CC[C@H](O)C[C@@H]1CC3 | – | EC50 [6]: 110 nM |
| > 200% | > 200% | COc1c(Cl)cccc1-c1ccc2c(c1)N(S(=O)(=O)c1cccc(C(F)(F)F)c1)C[C@H](CCC(=O)O)O2 | – | – |
| – | – | CC(C)CCC[C@@H](C)[C@H]1CC[C@H]2[C@@H]3CC=C4C[C@@H](O)CC[C@]4(C)[C@H]3CC[C@]12C [CHOLESTEROL] | 20 nM | – |
| > 200% | > 200% | CCN(c1cccc(OCc2c(Cl)cccc2Cl)c1)S(=O)(=O)c1cccc(C(F)(F)F)c1 | – | – |
| – | – | CC(C)=CCC[C@@H](C)[C@H]1CC[C@H]2[C@@H]3CC=C4C[C@@H](O)CC[C@]4(C)[C@H]3CC[C@]12C [DESMOSTEROL] | – | EC50 [6]: 80 nM |
| – | – | CC(C)CC[C@@H](O)[C@@H](C)[C@H]1CC[C@H]2[C@@H]3CC=C4C[C@@H](O)CC[C@]4(C)[C@H]3CC[C@]12C [22(R)-HYDROXYCHOLESTEROL] | 20 to 40 nM | – |
